Measurements published in patent US20150218212A1, “FLUORINATED EPOXYKETONE-BASED TETRAPEPTIDE COMPOUNDS AND USES THEREOF AS PROTEASOME INHIBITORS” (FLUORINOV PHARMA INC., priority 2012, published 2015).

Legend:
Type in all cases: cell-based, human
NCI-H522 = assay: NCI screening panel, NCI-H522 (Non-Small Cell Lung Cancer)
Protocol: (§1) Representative compounds of Formula I were screened using the National Cancer Institute (NCI) screening panel, which consists of a panel of human tumor cell lines, representing leukemia, melanoma, and cancers of the lung, colon, ovary, breast, prostate and renal system.
(§2) After 24 h, two plates of each cell line are fixed in situ with TCA, to represent a measurement of the cell population for each cell line at the time of drug addition (Tz). Experimental drugs are solubilised in dimethyl sulfoxide at 400-fold the desired final maximum test concentration and stored frozen prior to use. At the time of drug addition, an aliquot of frozen concentrate is thawed and diluted to twice the desired final maximum test concentration with complete medium containing 50 μg/mL gentamicin. Additional four, 10-fold or ½ log serial dilutions are made to provide a total of five drug concentrations plus control. Aliquots of 100 μl of these different drug dilutions are added to the appropriate microtiter wells already containing 100 μl of medium, resulting in the required final drug concentrations.
(§3) Following drug addition, the plates are incubated for an additional 48 h at 37° C., 5% CO2, 95% air, and 100% relative humidity. For adherent cells, the assay is terminated by the addition of cold TCA (trichloroacetic acid). Cells are fixed in situ by the gentle addition of 50 μl of cold 50% (w/v) TCA (final concentration, 10% TCA) and incubated for 60 minutes at 4° C. The supernatant is discarded, and the plates are washed five times with tap water and air dried. Sulforhodamine B (SRB) solution (100 μl) at 0.4% (w/v) in 1% acetic acid is added to each well, and plates are incubated for 10 minutes at room temperature. After staining, unbound dye is removed by washing five times with 1% acetic acid and the plates are air dried. Bound stain is subsequently solubilised with 10 mM trizma base, and the absorbance is read on an automated plate reader at a wavelength of 515 nm. For suspension cells, the methodology is the same except that the assay is terminated by fixing settled cells at the bottom of the wells by gently adding 50 μl of 80% TCA (final concentration, 16% TCA). Using the seven absorbance measurements [time zero, (Tz), control growth, (C), and test growth in the presence of drug at the five concentration levels (Ti)], the percentage growth is calculated at each of the drug concentrations levels. Percentage growth inhibition is calculated as: [(Ti−Tz)/(C−Tz)]×100 for concentrations for which Ti>/=Tz and [(Ti−Tz)/Tz]×100 for concentrations for which Ti<Tz.
(§4) Three dose response parameters are calculated for each experimental agent. Growth inhibition of 50% (GI50) is calculated from [(Ti−Tz)/(C−Tz)]×100=50, which is the drug concentration resulting in a 50% reduction in the net protein increase (as measured by SRB staining) in control cells during the drug incubation. The drug concentration resulting in total growth inhibition (TGI) is calculated from Ti=Tz. The LC50 (concentration of drug resulting in a 50% reduction in the measured protein at the end of the drug treatment as compared to that at the beginning) indicating a net loss of cells following treatment is calculated from [(Ti−Tz)/Tz]×100=−50. Values are calculated for each of these three parameters if the level of activity is reached. However, if the effect is not reached or is exceeded, the value for that parameter is expressed as greater or less than the maximum or minimum concentration tested.

TK-10 = assay: NCI screening panel, TK-10 (Renal Cancer)
Protocol: as §1, §2, §3, §4

HS 578T = assay: NCI screening panel, HS 578T (Breast Cancer)
Protocol: as §1, §2, §3, §4

NCI-H23 = assay: NCI screening panel, NCI-H23 (Non-Small Cell Lung Cancer)
Protocol: as §1, §2, §3, §4

SK-MEL-2 = assay: NCI screening panel, SK-MEL-2 (Melanoma)
Protocol: as §1, §2, §3, §4

OVCAR-5 = assay: NCI screening panel, OVCAR-5 (Ovarian Cancer)
Protocol: as §1, §2, §3, §4

HL-60(TB) = assay: NCI screening panel, HL-60(TB) (Leukemia)
Protocol: as §1, §2, §3, §4

HOP-62 = assay: NCI screening panel, HOP-62 (Non-Small Cell Lung Cancer)
Protocol: as §1, §2, §3, §4

In the case of `CC(C)C[C@H](NC(=O)[C@H](COC(F)F)NC(=O)[C@H](COC(F)F)NC(=O)[C@H](COC(F)F)NC(=O)CN1CCOCC1)C(=O)[C@@]1(C)CO1` [Example 17, (2S)-3-(difluoromethoxy)-N-[(1S)-1-(difluoromethoxymethyl)-2-[[(1S)-1-(difluoro-methoxymethyl)-2-[[(1S)-3-methyl-1-[(2R)-2-methyloxirane-2-carbonyl]butyl]amino]-2-oxo-ethyl]amino]-2-oxo-ethyl]-2-[(2-mor-pholinoacetyl)amino]-propanamide], the Log10GI50 (NCI-H522) is reported as −7.40, the Log10LC50 (NCI-H522) is reported as −5.25 and the Log10TGI50 (NCI-H522) is reported as −6.64. The Log10GI50 (TK-10) was −6.30, the Log10LC50 (TK-10) was greater than −4.00 and the Log10TGI50 (TK-10) was −4.85. The Log10GI50 (HS 578T) was −7.15, the Log10LC50 (HS 578T) was greater than −4.00 and the Log10TGI50 (HS 578T) was −5.27. The Log10GI50 (NCI-H23) was −7.15, the Log10LC50 (NCI-H23) was greater than −4.00 and the Log10TGI50 (NCI-H23) was −5.98. The Log10GI50 (SK-MEL-2) was −7.27, the Log10LC50 (SK-MEL-2) was −5.76 and the Log10TGI50 (SK-MEL-2) was −6.60. It also gave a Log10GI50 (OVCAR-5) of −6.55, a Log10LC50 (OVCAR-5) greater than −4.00 and a Log10TGI50 (OVCAR-5) of −5.71. The Log10GI50 (HL-60(TB)) was −6.70, the Log10LC50 (HL-60(TB)) was greater than −4.00 and the Log10TGI50 (HL-60(TB)) was −5.87. For the same molecule, the Log10GI50 (HOP-62) was −6.82, the Log10LC50 (HOP-62) was greater than −4.00 and the Log10TGI50 (HOP-62) was greater than −4.00.
